Assay results taken from ChEMBL document CHEMBL4145472, “Novel donepezil-like N-benzylpyridinium salt derivatives as AChE inhibitors and their corresponding dihydropyridine "bio-oxidizable" prodrugs: Synthesis, biological evaluation and structure-activity relationship” (Eur J Med Chem, 2018).

Columns and labels:
[1] = target: T1, Acetylcholinesterase (Homo sapiens, UniProt P22303); experiment: Inhibition of human erythrocyte AChE using acetylthiocholine iodide as substrate preincubated for 5 mins followed by substrate addition measured every minute for 10 mins by Ellman's method
[2] = Effective permeability of compound at 100 uM at pH 7.4 by PAMPA; format: ADME; settings: read-out: Peff
[3] = target: Cholinesterase (Equus caballus, UniProt P81908)
Description: Inhibition of equine serum BChE using butyrylthiocholine iodide as substrate preincubated for 5 mins followed by substrate addition measured every minute for 10 mins by Ellman's method

[4] = Selectivity index, ratio of IC50 for equine serum BChE to IC50 for human erythrocyte AChE
[5] = target: T1, Acetylcholinesterase; experiment: Inhibition of human erythrocyte AChE using acetylthiocholine iodide as substrate at 10 uM preincubated for 5 mins followed by substrate addition measured every minute for 10 mins by Ellman's method relative to control
[6] = target: Cholinesterase (Equus caballus) (UniProt P81908); experiment: Inhibition of equine serum BChE using butyrylthiocholine iodide as substrate at 10 uM preincubated for 5 mins followed by substrate addition measured every minute for 10 mins by Ellman's method relative to control
[7] = Half life in 2% riboflavine solution in PBS at 25 uM by HPLC-UV analysis; format: physicochemical; settings: 2% riboflavine solution in PBS

Sequence of Cholinesterase (P81908 whole entry): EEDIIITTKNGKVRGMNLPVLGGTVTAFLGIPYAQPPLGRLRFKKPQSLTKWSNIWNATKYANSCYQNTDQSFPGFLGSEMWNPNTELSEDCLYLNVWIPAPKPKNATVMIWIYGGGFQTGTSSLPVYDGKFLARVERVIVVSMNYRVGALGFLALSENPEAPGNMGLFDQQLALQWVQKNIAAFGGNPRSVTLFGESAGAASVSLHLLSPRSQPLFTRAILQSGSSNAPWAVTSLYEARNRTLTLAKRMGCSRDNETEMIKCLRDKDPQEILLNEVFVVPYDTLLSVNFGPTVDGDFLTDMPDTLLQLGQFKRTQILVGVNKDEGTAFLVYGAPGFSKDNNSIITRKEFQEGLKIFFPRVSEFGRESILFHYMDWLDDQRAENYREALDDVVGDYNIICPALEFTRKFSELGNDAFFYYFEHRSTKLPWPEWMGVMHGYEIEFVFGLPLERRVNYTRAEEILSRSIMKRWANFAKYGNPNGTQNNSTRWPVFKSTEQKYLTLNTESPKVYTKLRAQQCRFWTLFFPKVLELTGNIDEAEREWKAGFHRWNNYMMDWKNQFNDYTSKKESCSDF
T1 sequence (P22303 whole entry): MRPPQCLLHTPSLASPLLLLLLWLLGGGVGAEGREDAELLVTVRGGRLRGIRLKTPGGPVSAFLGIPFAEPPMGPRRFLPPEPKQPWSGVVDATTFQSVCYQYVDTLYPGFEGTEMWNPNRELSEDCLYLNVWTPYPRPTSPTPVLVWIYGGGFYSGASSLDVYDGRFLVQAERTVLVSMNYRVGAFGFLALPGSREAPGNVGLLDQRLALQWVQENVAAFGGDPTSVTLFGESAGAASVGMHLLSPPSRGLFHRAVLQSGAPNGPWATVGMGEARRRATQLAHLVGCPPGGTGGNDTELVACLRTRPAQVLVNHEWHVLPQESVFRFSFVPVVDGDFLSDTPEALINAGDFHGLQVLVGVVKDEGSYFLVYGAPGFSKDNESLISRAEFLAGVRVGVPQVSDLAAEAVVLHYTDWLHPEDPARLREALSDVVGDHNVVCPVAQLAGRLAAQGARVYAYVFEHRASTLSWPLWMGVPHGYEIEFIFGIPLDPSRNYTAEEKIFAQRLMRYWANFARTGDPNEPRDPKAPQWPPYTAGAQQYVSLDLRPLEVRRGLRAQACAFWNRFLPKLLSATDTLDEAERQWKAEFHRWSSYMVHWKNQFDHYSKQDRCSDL
Sequence of Cholinesterase (Equus caballus) (P81908 whole entry): as the sequence (P81908 whole entry) above

Compound | IC50 [1] | IC50 [3] | Ratio IC50 [4] | other results
COc1ccc(C(=O)CCC2C=CN(Cc3cccc(Cl)c3)C=C2C#N)cc1OC (stereo not given) | 0.923 µM | > 10 µM |  | Papp at 100 µM [2]: 15.1 ×10⁻⁶ cm/s
COc1ccc(C(=O)CCc2cc[n+](Cc3cccc(Cl)c3)cc2C(=O)O)cc1OC | 0.0181 µM |  |  | 
COc1cc2c(cc1OC)C(=O)C(CCCc1cc[n+](Cc3cccc(Cl)c3)cc1C(N)=O)C2 (stereo not given) | > 10 µM | 3.26 µM |  | 
COc1cc2c(cc1OC)C(=O)C(Cc1cc[n+](Cc3cccc(Cl)c3)cc1C(C)=O)CC2 (stereo not given) | 0.021 µM |  |  | 
COC(=O)c1c[n+](Cc2cccc(Cl)c2)ccc1CCC(=O)c1ccc(OC)c(OC)c1 | 0.171 µM | 2.03 µM |  | 
COc1ccc2c(c1)CCC(Cc1cc[n+](Cc3ccccc3C)cc1C(N)=O)C2=O (stereo not given) | 0.894 µM | 9.11 µM | 10.2 | 
COc1cc2c(cc1OC)C(=O)C(CC1C=CN(Cc3ccccc3)C=C1C(C)=O)CC2 (stereo in doubt; 24a-B) | 0.286 µM | 1.83 µM |  | 
COc1ccc(C(=O)CCc2cc[n+](Cc3ccccc3C(F)(F)F)cc2C#N)cc1OC | 0.275 µM |  |  | 
COc1ccc2c(c1)CCC(CC1C=CN(Cc3ccccc3F)C=C1C(C)=O)C2=O (stereo not given) | > 10 µM |  |  | 
COc1cc2c(cc1OC)C(=O)C(Cc1cc[n+](Cc3cccc(Cl)c3)cc1C(=O)O)C2 (stereo not given) | > 10 µM | > 10 µM |  | 
COc1ccc2c(c1)CCC(CC1C=CN(Cc3cccc(C)c3)C=C1C(C)=O)C2=O (stereo not given) | > 10 µM |  |  | 
COc1cc2c(cc1OC)C(=O)C(Cc1cc[n+](Cc3nc4ccccc4o3)cc1C(N)=O)C2 (stereo not given) | 9.27 µM | > 10 µM |  | 
COc1ccc2c(c1)CCC(Cc1cc[n+](Cc3cccc(Cl)c3)cc1C(C)=O)C2=O (stereo not given) |  |  | 6.9 | 
COc1ccc2c(c1)CCC(Cc1cc[n+](Cc3ccccc3Cl)cc1C(N)=O)C2=O (stereo not given) | 0.379 µM | 2.64 µM | 6.9 | 
COc1ccc2c(c1)CCC(CC1C=CN(Cc3ccccc3Cl)C=C1C(C)=O)C2=O (stereo not given) | > 10 µM |  |  | Papp at 100 µM [2]: 21.2 ×10⁻⁶ cm/s
COc1ccc(C(=O)CCC2C=CN(Cc3cccc(Cl)c3)C=C2C(C)=O)cc1OC (stereo not given) | > 10 µM | > 10 µM |  | Papp at 100 µM [2]: 18.2 ×10⁻⁶ cm/s
CC(=O)c1c[n+](Cc2cccc(Cl)c2)ccc1CC1Cc2cc(O)ccc2C1=O (stereo not given) | 0.116 µM | > 10 µM |  | 
COc1ccc(C(=O)CCC2C=CN(Cc3cccc(Cl)c3)C=C2C(N)=O)cc1OC (stereo not given) | > 10 µM | > 10 µM |  | Papp at 100 µM [2]: 18.9 ×10⁻⁶ cm/s
COC(=O)c1ccccc1C[n+]1ccc(CC2Cc3cc(OC)c(OC)cc3C2=O)c(C(=O)Oc2c(Cl)cc(Cl)cc2Cl)c1 (stereo not given) | 0.0693 µM | 0.373 µM | 5.38 | 
CNC(=O)c1c[n+](Cc2ccccc2C)ccc1CC1CCc2cc(OC)ccc2C1=O (stereo not given) | > 10 µM | 2.51 µM |  | 
COc1ccc2c(c1)CCC(Cc1cc[n+](Cc3cccc(F)c3)cc1C(C)=O)C2=O (stereo not given) |  |  | 7.5 | 

Compound | IC50 [1] | IC50 [3] | Ratio IC50 [4] | other results
COc1cc2c(cc1OC)C(=O)C(Cc1cc[n+](Cc3ccc(S(N)(=O)=O)cc3)cc1C(N)=O)C2 (stereo not given) | > 10 µM | > 10 µM |  | 
COc1ccc2c(c1)CCC(Cc1cc[n+](Cc3ccc(C)cc3)cc1C(C)=O)C2=O (stereo not given) |  |  | 7.4 | 
CC(=O)c1c[n+](Cc2ccccc2C)ccc1CC1Cc2cc(OCC(F)(F)F)ccc2C1=O (stereo not given) | 0.0371 µM | 4.15 µM | 112 | 
COc1cc2c(cc1OC)C(=O)C(Cc1cc[n+](Cc3cccc(O)c3)cc1C(N)=O)C2 (stereo not given) | > 10 µM | 5.36 µM |  | 
COc1ccc2c(c1)CCC(Cc1cc[n+](Cc3cccc(C(F)(F)F)c3)cc1C(C)=O)C2=O (stereo not given) |  |  | 18 | 
COc1ccc(C(=O)CCc2cc[n+](Cc3ccc(Cl)cc3)cc2C#N)cc1OC | > 10 µM | > 10 µM |  | 
COc1ccc2c(c1)CCC(Cc1cc[n+](Cc3ccc(Cl)cc3)cc1C(C)=O)C2=O (stereo not given) |  |  | 10.7 | 
COc1ccc2c(c1)CCC(Cc1cc[n+](Cc3ccccc3C)cc1C(F)(F)F)C2=O (stereo not given) | 0.242 µM | 2.24 µM | 9.2 | 
COc1ccc(C(=O)CCCCc2cc[n+](Cc3cccc(Cl)c3)cc2C(N)=O)cc1OC | > 10 µM | > 10 µM |  | 
COc1ccc2c(c1)CCC(Cc1cc[n+](Cc3ccccc3C)cc1C(C)=O)C2=O (stereo not given) |  |  | 43.3 | 
COc1ccc2c(c1)CCC(Cc1cc[n+](Cc3ccccc3Cl)cc1C(C)=O)C2=O (stereo not given) | 0.0295 µM |  | 8.6 | 
COc1ccc2c(c1)CCC(CC1C=CN(Cc3cccc(C(F)(F)F)c3)C=C1C(C)=O)C2=O (stereo not given) | > 10 µM | > 10 µM |  | 
CC(=O)c1c[n+](Cc2cccc(Cl)c2)ccc1CC1Cc2cc(F)ccc2C1=O (stereo not given) | > 10 µM |  |  | 
COc1ccc2c(c1)CCC(Cc1cc[n+](Cc3cccc(C)c3)cc1C(C)=O)C2=O (stereo not given) |  |  | 5.3 | 
COc1ccc2c(c1)CCC(Cc1cc[n+](Cc3cccc(C)c3)cc1Br)C2=O (stereo not given) |  |  | 40 | 
COc1ccc2c(c1)CCC(CC1C=CN(Cc3ccccc3C)C=C1C(N)=O)C2=O (stereo not given) | > 10 µM | > 10 µM |  | Papp at 100 µM [2]: 18.8 ×10⁻⁶ cm/s
COc1cc2c(cc1OC)C(=O)C(CC1C=CN(Cc3ccccc3)C=C1C(C)=O)CC2 (stereo in doubt; 24a-D) | 0.924 µM | 9.07 µM |  | 
COc1ccc(C(=O)CCc2cc[n+](Cc3cccc(Cl)c3)cc2C#N)cc1OC | 0.0222 µM | 4.24 µM | 191 | 
COc1cc2c(cc1OC)C(=O)C(CC1C=CN(Cc3ccccc3)C=C1C(C)=O)CC2 (stereo not given) [listing 1 of 2 here] |  |  |  | inhibition [5]: 36%; inhibition [6]: 45%
COc1ccc(C(=O)CCc2cc[n+](Cc3cccc(Cl)c3)cc2C(N)=O)cc1OC | > 10 µM | > 10 µM |  | 
COC(=O)C1=CN(Cc2cccc(Cl)c2)C=CC1CCC(=O)c1ccc(OC)c(OC)c1 (stereo not given) | > 10 µM | > 10 µM |  | 

Compound | IC50 [1] | IC50 [3] | Ratio IC50 [4] | other results
COc1ccc2c(c1)CCC(Cc1cc[n+](CC3CCCCC3)cc1C(C)=O)C2=O (stereo not given) | 0.21 µM | 0.341 µM | 1.6 | 
CCC[n+]1ccc(CC2CCc3cc(OC)ccc3C2=O)c(C(C)=O)c1 (stereo not given) | > 10 µM | > 10 µM |  | 
COc1ccc(C(=O)CCc2cc[n+](Cc3cccc(F)c3)cc2C#N)cc1OC | 0.011 µM | > 10 µM |  | 
COc1cc2c(cc1OC)C(=O)C(CC1C=CN(Cc3cccc(Cl)c3)C=C1C(N)=O)C2 (stereo in doubt; 23h-A) | 5.34 µM | 14.3 µM |  | half-life at 25 µM [7]: 24.6 min
COc1ccc2c(c1)CCC(Cc1cc[n+](Cc3ccccc3F)cc1C(C)=O)C2=O (stereo not given) |  |  | 11 | 
COc1cc2c(cc1OC)C(=O)C(Cc1cc[n+](CCc3ccccc3)cc1C(N)=O)C2 (stereo not given) | 0.896 µM | > 10 µM |  | 
COc1ccc2c(c1)CCC(CC1C=CN(Cc3ccc(Cl)cc3)C=C1C(C)=O)C2=O (stereo not given) | > 10 µM | > 10 µM |  | 
COc1ccc2c(c1)CCC(CC1C=CN(Cc3ccc(C)cc3)C=C1C(C)=O)C2=O (stereo not given) | > 10 µM | > 10 µM |  | 
COc1cc2c(cc1O)C(=O)C(Cc1cc[n+](Cc3cccc(Cl)c3)cc1C(C)=O)C2 (stereo not given) | 0.0027 µM | > 10 µM |  | 
COc1cc2c(cc1OC)C(=O)C(CC1C=CN(Cc3cccc(Cl)c3)C=C1C(N)=O)C2 (stereo not given) |  |  |  | inhibition [5]: 29%; inhibition [6]: 6%
CC(=O)C1=CN(Cc2cccc(Cl)c2)C=CC1CC1Cc2cc(F)ccc2C1=O (stereo not given) | > 10 µM | > 10 µM |  | 
C[C@]12CCC(=O)C=C1CC[C@@H]1[C@@H]2C(=O)C[C@@]2(C)[C@H]1CC[C@]2(O)C(=O)CO [CORTISONE] |  |  |  | Papp at 100 µM [2]: 16.8 to 20.3 ×10⁻⁶ cm/s
COc1cc2c(cc1OC)C(=O)C(Cc1cc[n+](Cc3ccccc3)cc1Br)C2 (stereo not given) |  |  | 4970 | 
COc1cc2c(cc1OC)C(=O)C(Cc1cc[n+](Cc3cccc(C)n3)cc1C(N)=O)C2 (stereo not given) | 1.86 µM | > 10 µM |  | 
COc1cc2c(cc1OC)C(=O)C(CC1C=CN(Cc3ccccc3)C=C1C(C)=O)CC2 (stereo in doubt; 24a-C) | 0.173 µM | 1.67 µM |  | 
COc1ccc2c(c1)CCC(CC1C=CN(Cc3cccc(F)c3)C=C1C(C)=O)C2=O (stereo not given) | > 10 µM |  |  | 
COc1ccc(C(=O)CCc2cc[n+](Cc3cccc(Cl)c3)cc2C(C)=O)cc1OC | 0.144 µM | 3.2 µM | 22.2 | 
COc1cc2c(cc1OC)C(=O)C(CC1C=CN(Cc3ccccc3C)C=C1C(C)=O)C2 (stereo not given) |  |  |  | Papp at 100 µM [2]: 19.1 ×10⁻⁶ cm/s
COc1cc2c(cc1OC)C(=O)C(CC1C=CN(Cc3ccccc3)C=C1C(C)=O)CC2 (stereo not given) [listing 2 of 2 here] |  |  |  | Papp at 100 µM [2]: 20.4 ×10⁻⁶ cm/s
